# In ChEMBL document CHEMBL5137124, “Mutasynthesis Generates Antibacterial Benzothiophenic-Containing Nosiheptide Analogues” (2022):
# Legend:
# Type in all cases: functional
# Staphylococcus aureus [1] = assay: Antibacterial activity against gram positive methicillin-sensitive Staphylococcus aureus ATCC 6538 assessed as inhibition of bacterial growth incubated for 20 hrs by microtiter plate method
# Staphylococcus aureus [2] = assay: Antibacterial activity against gram positive methicillin-sensitive Staphylococcus aureus ATCC 25923 assessed as inhibition of bacterial growth incubated for 20 hrs by microtiter plate method
# Staphylococcus aureus [3] = assay: Antibacterial activity against gram positive methicillin-resistant Staphylococcus aureus ATCC 43300 assessed as inhibition of bacterial growth incubated for 20 hrs by microtiter plate method
# Staphylococcus aureus [4] = assay: Antibacterial activity against gram positive methicillin-resistant Staphylococcus aureus HCCB 20251 assessed as inhibition of bacterial growth incubated for 20 hrs by microtiter plate method
# Staphylococcus aureus [5] = assay: Antibacterial activity against gram positive methicillin-resistant Staphylococcus aureus HCCB 20252 assessed as inhibition of bacterial growth incubated for 20 hrs by microtiter plate method
# Enterococcus faecium [6] = assay: Antibacterial activity against gram positive vancomycin-sensitive Enterococcus faecium CICC 20419 assessed as inhibition of bacterial growth incubated for 20 hrs by microtiter plate method
# Enterococcus faecium [7] = assay: Antibacterial activity against gram positive vancomycin-sensitive Enterococcus faecium CICC 6049 assessed as inhibition of bacterial growth incubated for 20 hrs by microtiter plate method
# Enterococcus faecium [8] = assay: Antibacterial activity against gram positive vancomycin-resistant Enterococcus faecium ATCC 51559 assessed as inhibition of bacterial growth incubated for 20 hrs by microtiter plate method
Compound,MIC (Staphylococcus aureus [1]) [µg/mL],MIC (Staphylococcus aureus [2]) [µg/mL],MIC (Staphylococcus aureus [3]) [µg/mL],MIC (Staphylococcus aureus [4]) [µg/mL],MIC (Staphylococcus aureus [5]) [µg/mL],MIC (Enterococcus faecium [6]) [µg/mL],MIC (Enterococcus faecium [7]) [µg/mL],MIC (Enterococcus faecium [8]) [µg/mL]
C=C(NC(=O)c1csc(-c2nc3c(cc2O)-c2nc(cs2)C(=O)N[C@@H]([C@@H](C)O)C(=O)N/C(=C\C)c2nc(cs2)C(=O)N[C@H]2C[C@H](O)C(=O)OCc4cccc5[nH]c(c(C)c45)C(=O)SC[C@H](NC(=O)c4csc2n4)c2nc-3cs2)n1)C(N)=O,0.002,0.008,0.008,0.008,0.008,0.032,0.016,≤ 0.008
C=C(NC(=O)C(=C)NC(=O)c1csc(-c2ccc3c(n2)-c2csc(n2)[C@@H]2CSC(=O)c4sc5cccc(c5c4C)COC(=O)CC[C@H](NC(=O)c4csc(n4)/C(=C/C)NC(=O)[C@H]([C@@H](C)O)NC(=O)c4csc-3n4)c3nc(cs3)C(=O)N2)n1)C(=O)O,0.016,0.032,0.032,0.064,0.032,1.02,1.02,0.512
C=C(NC(=O)c1csc(-c2nc3c(cc2O)-c2nc(cs2)C(=O)N[C@@H]([C@@H](C)O)C(=O)N/C(=C\C)c2nc(cs2)C(=O)N[C@H]2CCC(=O)OCc4cccc5sc(c(C)c45)C(=O)SC[C@H](NC(=O)c4csc2n4)c2nc-3cs2)n1)C(N)=O,0.004,0.032,0.008,0.016,0.008,0.064,0.064,0.032
C=C(NC(=O)C(=C)NC(=O)c1csc(-c2ccc3c(n2)-c2csc(n2)[C@@H]2CSC(=O)c4[nH]c5cccc(c5c4C)COC(=O)CC[C@H](NC(=O)c4csc(n4)/C(=C/C)NC(=O)[C@H]([C@@H](C)O)NC(=O)c4csc-3n4)c3nc(cs3)C(=O)N2)n1)C(=O)O,0.016,0.016,0.032,0.064,0.064,1.02,> 1.02,0.512
C=C(NC(=O)c1csc(-c2nc3c(cc2O)-c2nc(cs2)C(=O)N[C@@H]([C@@H](C)O)C(=O)N/C(=C\C)c2nc(cs2)C(=O)N[C@H]2C[C@H](O)C(=O)OCc4cccc5sc(c(C)c45)C(=O)SC[C@H](NC(=O)c4csc2n4)c2nc-3cs2)n1)C(N)=O,0.004,0.008,0.008,0.016,0.008,0.064,0.064,0.016
CN[C@H](CC(C)C)C(=O)N[C@H]1C(=O)N[C@@H](CC(N)=O)C(=O)N[C@H]2C(=O)N[C@H]3C(=O)N[C@H](C(=O)N[C@H](C(=O)O)c4cc(O)cc(O)c4-c4cc3ccc4O)[C@H](O)c3ccc(c(Cl)c3)Oc3cc2cc(c3O[C@@H]2O[C@H](CO)[C@@H](O)[C@H](O)[C@H]2O[C@H]2C[C@](C)(N)[C@H](O)[C@H](C)O2)Oc2ccc(cc2Cl)[C@H]1O [VANCOMYCIN],–,–,–,–,–,–,–,> 128
